Results taken from article PMC11822212, “High-throughput screening identifies Aurora kinase B as a critical therapeutic target for Merkel cell carcinoma” (Nature Communications, 2025).
Values joined by “and” are separate entries in the source; they are usually repeats but may differ in a detail not shown here. Identical values can stand only once. Like-named read-outs stand apart in the source and are kept apart here.

Experiments:
Test in all cases: qHTS cell viability (CellTiter-Glo, 72 h; primary and follow-up small molecule screen)
Format in all cases: cell-based, human
MCC13 cells (VN-MCC) = system: MCC13 cells (VN-MCC)
MCC26 cells (VN-MCC) = system: MCC26 cells (VN-MCC)
UISO cells (VN-MCC) = system: UISO cells (VN-MCC)
WAGA cells (VP-MCC) = system: WAGA cells (VP-MCC)
MKL-1 cells (VP-MCC) = system: MKL-1 cells (VP-MCC)
MKL-2 cells (VP-MCC) = system: MKL-2 cells (VP-MCC)
[1] = follow-up screen, MCC13, replicate 1
[2] = follow-up screen, MCC13, replicate 2
[3] = follow-up screen, MCC13, replicate 3
[4] = follow-up screen, MCC26, replicate 1
[5] = follow-up screen, MCC26, replicate 2
[6] = follow-up screen, MCC26, replicate 3
[7] = follow-up screen, UISO, replicate 1
[8] = follow-up screen, UISO, replicate 2
[9] = follow-up screen, UISO, replicate 3
[10] = follow-up screen, WAGA, replicate 1
[11] = follow-up screen, WAGA, replicate 2
[12] = follow-up screen, WAGA, replicate 3
[13] = follow-up screen, MKL-1, replicate 1
[14] = follow-up screen, MKL-1, replicate 2
[15] = follow-up screen, MKL-1, replicate 3
[16] = follow-up screen, MKL-2, replicate 1
[17] = follow-up screen, MKL-2, replicate 2
[18] = follow-up screen, MKL-2, replicate 3

| Compound | Area under the dose-response curve (AUC) MCC13 Replicate 1 (MCC13 cells (VN-MCC)) | Area under the dose-response curve (AUC) MCC13 Replicate 2 (MCC13 cells (VN-MCC)) | Area under the dose-response curve (AUC) MCC13 Replicate 3 (MCC13 cells (VN-MCC)) | Area under the dose-response curve (AUC) MCC26 Replicate 1 (MCC26 cells (VN-MCC)) | Area under the dose-response curve (AUC) MCC26 Replicate 2 (MCC26 cells (VN-MCC)) | Area under the dose-response curve (AUC) MCC26 Replicate 3 (MCC26 cells (VN-MCC)) | Area under the dose-response curve (AUC) UISO Replicate 1 (UISO cells (VN-MCC)) | Area under the dose-response curve (AUC) UISO Replicate 2 (UISO cells (VN-MCC)) | Area under the dose-response curve (AUC) UISO Replicate 3 (UISO cells (VN-MCC)) | Area under the dose-response curve (AUC) WAGA Replicate 1 (WAGA cells (VP-MCC)) | Area under the dose-response curve (AUC) WAGA Replicate 2 (WAGA cells (VP-MCC)) | Area under the dose-response curve (AUC) WAGA Replicate 3 (WAGA cells (VP-MCC)) | Area under the dose-response curve (AUC) MKL-1 Replicate 1 (MKL-1 cells (VP-MCC)) | Area under the dose-response curve (AUC) MKL-1 Replicate 2 (MKL-1 cells (VP-MCC)) | Area under the dose-response curve (AUC) MKL-1 Replicate 3 (MKL-1 cells (VP-MCC)) | Area under the dose-response curve (AUC) MKL-2 Replicate 1 (MKL-2 cells (VP-MCC)) | Area under the dose-response curve (AUC) MKL-2 Replicate 2 (MKL-2 cells (VP-MCC)) | Area under the dose-response curve (AUC) MKL-2 Replicate 3 (MKL-2 cells (VP-MCC)) | also measured |
| --- | --- | --- | --- | --- | --- | --- | --- | --- | --- | --- | --- | --- | --- | --- | --- | --- | --- | --- | --- |
| O=C(/C=C/c1ccc(/C=C/C(=O)Nc2ccc(C3=NCCN3)cc2)cc1)Nc1ccc(C2=NCCN2)cc1 [GW 4869] | 485.4 | 474.1 | 483.0 | 426.9 | 422.1 | 445.3 | 438.7 | 454.7 | 432.9 | 473.9 | 513.7 | 487.4 | 478.1 | 455.5 | 501.6 | 446.9 | 473.7 | 455.4 | – |
| Oc1ccc(C2=Cc3ccc(O)cc3OC2)cc1 [Idronoxil] | – | – | – | – | – | – | – | – | – | – | – | – | – | – | – | – | – | – | Area under the dose-response curve (AUC) (MCC13 cells (VN-MCC)): 415.6 and 455.9 and 456.9; Area under the dose-response curve (AUC) (MCC26 cells (VN-MCC)): 408.0 and 413.9 and 448.0; Area under the dose-response curve (AUC) (UISO cells (VN-MCC)): 422.5 and 447.1 and 401.0; Area under the dose-response curve (AUC) (WAGA cells (VP-MCC)): 395.2 and 366.0 and 386.6; Area under the dose-response curve (AUC) (MKL-1 cells (VP-MCC)): 285.6 and 303.3 and 334.8; Area under the dose-response curve (AUC) (MKL-2 cells (VP-MCC)): 351.5 and 302.3 and 331.4 |
| CO[C@@H]1C[C@@H](C[C@H]2CC[C@H](C)[C@H]([C@@H](C)C(=O)[O-])O2)O[C@]2(O[C@](C)([C@H]3CC[C@@](C)([C@@H]4O[C@@H]([C@H]5O[C@@](O)(CO)[C@H](C)C[C@@H]5C)C[C@@H]4C)O3)C[C@H]2C)[C@@H]1C.[Na+] [Nigericin sodium salt] | 420.5 | 422.2 | 367.3 | 423.1 | 378.2 | 418.9 | 277.0 | 262.8 | 250.0 | 344.8 | 317.4 | 302.7 | 303.1 | 277.9 | 285.1 | 228.1 | 251.1 | 280.4 | – |
| CCCNC(=O)[C@H]1O[C@@H]1C(=O)N[C@H](C(=O)N1CCC[C@H]1C(=O)OC)C(C)CC (stereo partly drawn) [CA-074 Me] | 449.3 | 470.8 | 430.6 | 401.2 | 420.5 | 371.8 | 368.5 | 355.5 | 334.3 | 383.1 | 375.3 | 378.5 | 343.4 | 329.7 | 317.3 | 305.9 | 306.4 | 348.6 | – |
| SP-600125 | 457.8 | 483.0 | 492.5 | 435.5 | 426.6 | 458.4 | 425.2 | 449.0 | 462.0 | 479.2 | 486.5 | 468.4 | 472.9 | 491.9 | 491.6 | 447.3 | 464.7 | 498.4 | – |
| C/C=C(/C)C(=O)O[C@H]1C(C)=C2[C@H]([C@@H]1OC(=O)CCCCCCC)[C@@](C)(OC(C)=O)C[C@H](OC(=O)CCC)[C@@]1(O)[C@H]2OC(=O)[C@@]1(C)O [Thapsigargin] | – | – | – | – | – | – | – | – | – | – | – | – | – | – | – | – | – | – | Area under the dose-response curve (AUC) MCC13 Replicate 1 (MCC13 cells (VN-MCC); [1]): 289.0; Area under the dose-response curve (AUC) MCC13 Replicate 2 (MCC13 cells (VN-MCC); [2]): 272.1; Area under the dose-response curve (AUC) MCC13 Replicate 3 (MCC13 cells (VN-MCC); [3]): 274.4; Area under the dose-response curve (AUC) MCC26 Replicate 1 (MCC26 cells (VN-MCC); [4]): 278.4; Area under the dose-response curve (AUC) MCC26 Replicate 2 (MCC26 cells (VN-MCC); [5]): 281.8; Area under the dose-response curve (AUC) MCC26 Replicate 3 (MCC26 cells (VN-MCC); [6]): 214.4; Area under the dose-response curve (AUC) UISO Replicate 1 (UISO cells (VN-MCC); [7]): 207.4; Area under the dose-response curve (AUC) UISO Replicate 2 (UISO cells (VN-MCC); [8]): 234.5; Area under the dose-response curve (AUC) UISO Replicate 3 (UISO cells (VN-MCC); [9]): 207.7; Area under the dose-response curve (AUC) WAGA Replicate 1 (WAGA cells (VP-MCC); [10]): 336.3; Area under the dose-response curve (AUC) WAGA Replicate 2 (WAGA cells (VP-MCC); [11]): 303.0; Area under the dose-response curve (AUC) WAGA Replicate 3 (WAGA cells (VP-MCC); [12]): 289.2; Area under the dose-response curve (AUC) MKL-1 Replicate 1 (MKL-1 cells (VP-MCC); [13]): 384.9; Area under the dose-response curve (AUC) MKL-1 Replicate 2 (MKL-1 cells (VP-MCC); [14]): 385.8; Area under the dose-response curve (AUC) MKL-1 Replicate 3 (MKL-1 cells (VP-MCC); [15]): 395.7; Area under the dose-response curve (AUC) MKL-2 Replicate 1 (MKL-2 cells (VP-MCC); [16]): 322.6; Area under the dose-response curve (AUC) MKL-2 Replicate 2 (MKL-2 cells (VP-MCC); [17]): 308.5; Area under the dose-response curve (AUC) MKL-2 Replicate 3 (MKL-2 cells (VP-MCC); [18]): 284.8 |
| C[C@]12CC[C@H](O)C[C@H]1CC[C@@H]1[C@@H]2CC[C@]2(C)[C@@H](c3ccc(=O)oc3)CC[C@]12O [Bufalin] | – | – | – | – | – | – | – | – | – | – | – | – | – | – | – | – | – | – | Area under the dose-response curve (AUC) (MCC13 cells (VN-MCC)): 246.2 and 243.7 and 237.7; Area under the dose-response curve (AUC) (MCC26 cells (VN-MCC)): 270.7 and 302.4 and 244.7; Area under the dose-response curve (AUC) (UISO cells (VN-MCC)): 235.9 and 234.7 and 201.8; Area under the dose-response curve (AUC) (WAGA cells (VP-MCC)): 311.5 and 289.3 and 286.6; Area under the dose-response curve (AUC) (MKL-1 cells (VP-MCC)): 317.9 and 310.4 and 298.2; Area under the dose-response curve (AUC) (MKL-2 cells (VP-MCC)): 316.9 and 287.6 and 264.0 |
| CC[C@@]1(O)C(=O)OCc2c1cc1n(c2=O)Cc2cc3ccccc3nc2-1 [Camptothecin] | – | – | – | – | – | – | – | – | – | – | – | – | – | – | – | – | – | – | Area under the dose-response curve (AUC) MCC13 Replicate 1 (MCC13 cells (VN-MCC); [1]): 224.5; Area under the dose-response curve (AUC) MCC13 Replicate 2 (MCC13 cells (VN-MCC); [2]): 221.7; Area under the dose-response curve (AUC) MCC13 Replicate 3 (MCC13 cells (VN-MCC); [3]): 254.2; Area under the dose-response curve (AUC) MCC26 Replicate 1 (MCC26 cells (VN-MCC); [4]): 203.3; Area under the dose-response curve (AUC) MCC26 Replicate 2 (MCC26 cells (VN-MCC); [5]): 207.4; Area under the dose-response curve (AUC) MCC26 Replicate 3 (MCC26 cells (VN-MCC); [6]): 184.6; Area under the dose-response curve (AUC) UISO Replicate 1 (UISO cells (VN-MCC); [7]): 151.6; Area under the dose-response curve (AUC) UISO Replicate 2 (UISO cells (VN-MCC); [8]): 176.2; Area under the dose-response curve (AUC) UISO Replicate 3 (UISO cells (VN-MCC); [9]): 177.2; Area under the dose-response curve (AUC) WAGA Replicate 1 (WAGA cells (VP-MCC); [10]): 164.4; Area under the dose-response curve (AUC) WAGA Replicate 2 (WAGA cells (VP-MCC); [11]): 180.7; Area under the dose-response curve (AUC) WAGA Replicate 3 (WAGA cells (VP-MCC); [12]): 159.3; Area under the dose-response curve (AUC) MKL-1 Replicate 1 (MKL-1 cells (VP-MCC); [13]): 168.7; Area under the dose-response curve (AUC) MKL-1 Replicate 2 (MKL-1 cells (VP-MCC); [14]): 185.9; Area under the dose-response curve (AUC) MKL-1 Replicate 3 (MKL-1 cells (VP-MCC); [15]): 170.7; Area under the dose-response curve (AUC) MKL-2 Replicate 1 (MKL-2 cells (VP-MCC); [16]): 160.6; Area under the dose-response curve (AUC) MKL-2 Replicate 2 (MKL-2 cells (VP-MCC); [17]): 161.3; Area under the dose-response curve (AUC) MKL-2 Replicate 3 (MKL-2 cells (VP-MCC); [18]): 224.5 |
